Some test systems named below: A498 renal; EKVX NSCLC; DU-145 prostate; SK-OV-3 ovarian; MCF7 breast; TK-10 renal; MALME-3M melanoma; MOLT-4 leukemia.
What all share (assay): growth of human tumour cells (NCI), 48 h

Experimental findings from PubChem BioAssay (NCI) are described below.

Where “and” joins values, the source holds several entries; their conditions need not be identical. Equal entries are not always repeated.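 Assay format: 96-well plates, 48-hour exposure. GI50 = concentration required for 50% inhibition of growth. TGI: concentration producing complete growth inhibition.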 Bounds are passed on as bounds.

Consider `O=C(O)c1ccc(/C=N/N=C2c3ccccc3-c3ccccc32)cc1`, for which the TGI in the experiment with A498 renal, in the experiment on EKVX NSCLC, with DU-145 prostate, in the experiment with SK-OV-3 ovarian, in the experiment on MCF7 breast and with TK-10 renal was over 100 µM in each case. For the same molecule, the TGI in the experiment with MALME-3M melanoma and in the experiment on MOLT-4 leukemia was over 100 µM in each case.
With `CC#CC#C/C(=C/C=CC(=O)OC)SC`, the TGI with A498 renal, with EKVX NSCLC, in the experiment on DU-145 prostate, in the experiment with SK-OV-3 ovarian, in the experiment on MCF7 breast and with TK-10 renal was over 100 µM throughout. In addition, the TGI with MALME-3M melanoma and with MOLT-4 leukemia was over 100 µM throughout.
As to `CCC(C)C1NC(=O)C(NC(=O)C(CC(C)C)N(C)C(=O)[C@@H]2CC(O)CN2C(=O)[C@H](C)O)C(C)OC(=O)[C@H](Cc2ccc(OC)cc2)N(C)C(=O)[C@@H]2CCCN2C(=O)[C@H](CC(C)C)NC(=O)C(C)C(=O)[C@H](C(C)C)OC(=O)CC1O` (stereo not given in full), the GI50 was 0.325 µM in the experiment with A498 renal; 0.0884 µM in the experiment with DU-145 prostate; 0.0209 µM in the experiment on SK-OV-3 ovarian; under 0.01 µM in the experiment with MCF7 breast; 0.224 µM in the experiment with TK-10 renal; 0.013 µM with MALME-3M melanoma. Moreover, the GI50 in the experiment with MOLT-4 leukemia was 0.0142 µM. Also, the TGI in the experiment with A498 renal was 4.84 µM and 3.01 µM; with EKVX NSCLC, 3.32 µM; with DU-145 prostate it was 3.35 µM and 1.85 µM; with SK-OV-3 ovarian, 1.11 µM and 0.404 µM; in the experiment on TK-10 renal it was 4.52 µM and 2.05 µM; in the experiment with MALME-3M melanoma, 1.07 µM and 0.185 µM.
Turning to `O=C(CCN1CCCN(c2cnc3ccccc3n2)CC1)c1csc2ccccc12`, the GI50 is 96.7 µM with A498 renal; 19.6 µM in the experiment with EKVX NSCLC; 16.6 µM in the experiment with DU-145 prostate; over 100 µM in the experiment with SK-OV-3 ovarian; 3.2 µM in the experiment with MCF7 breast; 16.1 µM with TK-10 renal. Further, the GI50 is 18 µM with MALME-3M melanoma and 26 µM in the experiment with MOLT-4 leukemia. The TGI is over 100 µM in the experiment with A498 renal; 38.7 µM with EKVX NSCLC; 32.4 µM in the experiment on DU-145 prostate; over 100 µM in the experiment on SK-OV-3 ovarian; 16.4 µM with MCF7 breast; 29.5 µM in the experiment on TK-10 renal. The TGI with MALME-3M melanoma amounted to 32.1 µM; with MOLT-4 leukemia it was 57.9 µM.
For `Cc1cc(-c2cc(OC(=O)c3ccccc3)ccc2Cl)cc2nnc(Nc3ccc(OCCN4CCCC4)cc3)nc12`, the GI50 was 9.84 µM with A498 renal; 1.61 µM in the experiment on EKVX NSCLC; 1.75 µM in the experiment with DU-145 prostate; 1.58 µM with SK-OV-3 ovarian; 0.186 µM with MCF7 breast; 1.63 µM in the experiment with TK-10 renal. The GI50 was 1.45 µM in the experiment on MALME-3M melanoma and 2.01 µM in the experiment with MOLT-4 leukemia. Besides, the TGI in the experiment on EKVX NSCLC was 3.09 µM; with DU-145 prostate, 3.17 µM; with SK-OV-3 ovarian it was 3.09 µM; with MCF7 breast, 0.403 µM; with TK-10 renal it was 3.03 µM; in the experiment with MALME-3M melanoma, 2.93 µM. Further, the TGI in the experiment on MOLT-4 leukemia was 4.74 µM.
For `C=C(Br)COc1ccc2c(C)cc(=O)oc2c1`, the TGI with A498 renal was over 100 µM; with EKVX NSCLC, over 100 µM; in the experiment on DU-145 prostate it was over 100 µM; in the experiment on MCF7 breast, 19.7 µM; in the experiment on TK-10 renal, over 100 µM; in the experiment on MALME-3M melanoma it was over 100 µM. For the same molecule, the TGI in the experiment on MOLT-4 leukemia was over 100 µM.
For the molecule `COc1ccc(/C=C\c2cc(OC)c(OC)c(OC)c2)c(NS(=O)(=O)c2ccc(F)cc2)c1O`, the GI50 in the experiment on A498 renal is 0.0235 µM; with EKVX NSCLC it was 0.466 µM; in the experiment with DU-145 prostate, 0.039 µM; in the experiment with SK-OV-3 ovarian, 0.211 µM; in the experiment on MCF7 breast it was 0.0483 µM; in the experiment with TK-10 renal, 2.25 µM. Besides, the values for the GI50 in the experiment with MALME-3M melanoma and in the experiment on MOLT-4 leukemia were 10.2 µM and 0.0466 µM, respectively. In addition, the TGI was 0.0966 µM with A498 renal; over 100 µM in the experiment with EKVX NSCLC; over 100 µM in the experiment with SK-OV-3 ovarian; over 46.3 µM with MCF7 breast; over 100 µM in the experiment with TK-10 renal; over 100 µM in the experiment on MALME-3M melanoma. Also, the TGI with MOLT-4 leukemia was over 100 µM.
As for `O=c1/c(=C\c2ccc(Br)cc2)sc2n1C(c1ccc(Br)cc1)C1=C(N=2)c2ccc3ccccc3c2OCC1` (stereo not given), the GI50 in the experiment on A498 renal, in the experiment on EKVX NSCLC, in the experiment on DU-145 prostate, in the experiment on SK-OV-3 ovarian, with MCF7 breast and in the experiment with TK-10 renal was over 100 µM each time. For the same molecule, the GI50 with MALME-3M melanoma and with MOLT-4 leukemia was over 100 µM each time. Further, the TGI in the experiment with A498 renal, in the experiment on EKVX NSCLC, in the experiment with DU-145 prostate, in the experiment on SK-OV-3 ovarian, in the experiment on MCF7 breast and with TK-10 renal was over 100 µM in each case. Also, the TGI in the experiment with MALME-3M melanoma and in the experiment with MOLT-4 leukemia was over 100 µM throughout.
For the molecule `CC(=O)ON=C1C=CC(=C(C#N)c2ccccc2)C=C1`, the GI50 with A498 renal is 12.6 µM; in the experiment on EKVX NSCLC, 6.96 µM; in the experiment on DU-145 prostate, 0.704 µM; in the experiment on SK-OV-3 ovarian, 6.41 µM; with MCF7 breast, 0.319 µM; in the experiment on TK-10 renal, 2.58 µM. Besides, the GI50 in the experiment on MALME-3M melanoma is 4.01 µM; with MOLT-4 leukemia, 2.86 µM. Moreover, the TGI was 47 µM with A498 renal; 42.4 µM with EKVX NSCLC; 2.86 µM with DU-145 prostate; over 100 µM with SK-OV-3 ovarian; 12.8 µM in the experiment with MCF7 breast; 9.9 µM in the experiment with TK-10 renal. Further, the figures for the TGI in the experiment on MALME-3M melanoma and with MOLT-4 leukemia were 20.1 µM and over 100 µM, respectively.
As for `Nc1n[nH]c2ccc([C@@H]3Nc4ccc5cn[nH]c5c4[C@H]4C5CCC(C5)[C@@H]34)cc12` (stereo not given in full), the GI50 is 0.181 µM in the experiment with A498 renal; 0.554 µM in the experiment with EKVX NSCLC; 0.417 µM in the experiment with DU-145 prostate; 0.831 µM in the experiment with SK-OV-3 ovarian; 0.347 µM in the experiment with MCF7 breast; 15.1 µM in the experiment with TK-10 renal. Also, the GI50 in the experiment on MALME-3M melanoma was 0.522 µM; with MOLT-4 leukemia it was 0.446 µM. Besides, the TGI in the experiment with A498 renal was 0.777 µM; in the experiment with EKVX NSCLC it was over 100 µM; with DU-145 prostate it was over 100 µM; in the experiment with SK-OV-3 ovarian it was over 100 µM; in the experiment with MCF7 breast, over 76.8 µM; in the experiment on TK-10 renal, over 100 µM. The TGI in the experiment on MALME-3M melanoma and with MOLT-4 leukemia was over 100 µM in each case.
